Test results from article PMC12469269, “Investigating SMR Peptide Interactions with Breast Cancer-Associated Proteins” (International Journal of Molecular Sciences, 2025).
Where no end group is shown, it is not given here.

Tests used:
[1] = tested on: Jurkat T cells; test: exNef secretion, Mortalin scanning peptides (Figure 5A), Jurkat T cells; type: cell-based; details: 50 ng / 200 μL peptide, 250 ng Nef-GFP plasmid, 48 h, GFP fluorescence in media; SMRmut = 100; mean of three independent experiments
Method: To determine whether Mortalin-derived peptides can inhibit the secretion of extracellular Nef (exNef), Jurkat T cells were co-transfected with wild-type Nef-GFP and various scanning peptides derived from the substrate-binding domain of Mortalin (#56–#67). SMRwt and SMRmut peptides were included as positive and negative controls, respectively. After 48 h of incubation, GFP fluorescence in the culture media was measured as a proxy for exNef secretion.
(§1) Figure 5 Effects of Mortalin-derived peptides on inhibition of exNef and tumor exosome secretion. (A) Jurkat T cells were co-transfected with 250 ng of wild-type Nef-GFP plasmid and 50 ng of Mortalin-derived scanning peptides (#56–#67), including SMRwt and SMRmut as positive and negative controls. After 48 h, GFP fluorescence in culture media was measured to assess exNef secretion. Data represent mean ± SD from three independent experiments. Statistical significance was determined using a two-sample t-test assuming equal variances. (B) MDA-MB-231 cells were transfected with 50 ng of Mortalin-derived scanning peptides (#56–#67), including SMRwt and SMRmut controls. Cells were labeled with N-Rh-PE and incubated for 48 h. N-Rh-PE fluorescence in culture media was measured to assess exosome secretion. Data represent mean ± SD from three independent experiments. Statistical significance was determined using a two-sample t-test assuming equal variances. TEXT PRINTED IN THE PICTURE: (A) #56: Jurkat GFP (%): 117.84 (50 ng / 200 μL) | (A) #57: Jurkat GFP (%): 96.69 (50 ng / 200 μL) | (A) #58: Jurkat GFP (%): 91.89 (50 ng / 200 μL) | (A) #59: Jurkat GFP (%): 95.49 (50 ng / 200 μL) | (A) #60: Jurkat GFP (%): 98.25 (50 ng / 200 μL) | (A) #61: Jurkat GFP (%): 0.65 (50 ng / 200 μL) | (A) #62: Jurkat GFP (%): 0.51 (50 ng / 200 μL) | (A) #63: Jurkat GFP (%): 98.02 (50 ng / 200 μL) | (A) #64: Jurkat GFP (%): 95.37 (50 ng / 200 μL) | (A) #65: Jurkat GFP (%): 96.34 (50 ng / 200 μL) | (A) #66: Jurkat GFP (%): 92.28 (50 ng / 200 μL) | (A) #67: Jurkat GFP (%): 99.56 (50 ng / 200 μL) | (A) SMRwt: Jurkat GFP (%): 0.51 (50 ng / 200 μL) | (A) SMRmut: Jurkat GFP (%): 100 (50 ng / 200 μL) | (B) #56: MDA-MB-231 N-Rh-PE (%): 66.31 (50 ng / 200 μL) | (B) #57: MDA-MB-231 N-Rh-PE (%): 79.73 (50 ng / 200 μL) | (B) #58: MDA-MB-231 N-Rh-PE (%): 68.11 (50 ng / 200 μL) | (B) #59: MDA-MB-231 N-Rh-PE (%): 67.81 (50 ng / 200 μL) | (B) #60: MDA-MB-231 N-Rh-PE (%): 72.32 (50 ng / 200 μL) | (B) #61: MDA-MB-231 N-Rh-PE (%): 7.53 (50 ng / 200 μL) | (B) #62: MDA-MB-231 N-Rh-PE (%): 5.36 (50 ng / 200 μL) | (B) #63: MDA-MB-231 N-Rh-PE (%): 75.39 (50 ng / 200 μL) | (B) #64: MDA-MB-231 N-Rh-PE (%): 73.49 (50 ng / 200 μL) | (B) #65: MDA-MB-231 N-Rh-PE (%): 81.65 (50 ng / 200 μL) | (B) #66: MDA-MB-231 N-Rh-PE (%): 81.79 (50 ng / 200 μL) | (B) #67: MDA-MB-231 N-Rh-PE (%): 89.82 (50 ng / 200 μL) | (B) SMRwt: MDA-MB-231 N-Rh-PE (%): 6.11 (50 ng / 200 μL) | (B) SMRmut: MDA-MB-231 N-Rh-PE (%): 100 (50 ng / 200 μL)
To identify peptide sequences within Mortalin that modulate extracellular vesicle (EV) secretion, a panel of scanning peptides was synthesized and tested in Jurkat T cells. The peptides, listed in Table 1, were custom-synthesized with an average purity of 75% and used in transfection assays to evaluate their impact on EV release. Jurkat T cells (3 × 10^5) were co-transfected with 50 ng of individual Mortalin peptides […] 250 ng of wild-type Nef-GFP plasmid using Chariot™ transfection reagent. Transfection efficiency was confirmed by fluorescence microscopy after 48 h. EV secretion was assessed by measuring GFP fluorescence in the culture media, and statistical analysis was performed using unpaired two-factor t-tests (p < 0.05). Panel of Mortalin scanning peptides developed and tested for their effect EV secretion and Table S2. Mortalin Scanning Peptides Used in Transfection Assays, see the Supplementary Information. […]

[2] = tested on: MDA-MB-231 cells; test: Tumor exosome secretion, Mortalin scanning peptides (Figure 5B), MDA-MB-231; type: cell-based, human; details: 50 ng / 200 μL peptide, transfected, 48 h, N-Rh-PE fluorescence in media; SMRmut = 100; mean of three independent experiments
Method: as §1
To assess the effect of Mortalin-derived peptides on tumor exosome secretion, MDA-MB-231 breast cancer cells were transfected with the same panel of scanning peptides and labeled with N-Rh-PE to track exosome release. Following incubation, N-Rh-PE fluorescence in the culture media was measured as a proxy for extracellular exosome levels. SMRwt and SMRmut peptides were again used as controls. […] Statistical analysis confirmed significant differences: SMRmut vs. #61 (p < 7.20 × 10^−7), SMRmut vs. #62 (p < 5.70 × 10^−7), and SMRmut vs. SMRwt (p < 5.96 × 10^−7).

[3] = molecular target: Nef protein (Human immunodeficiency virus type 1 group M subtype B, UniProt P03404); test: SPR binding of Mortalin peptides to immobilized Nef; design: species or system HIV-1; details: for kon: pH 7.4, read-out: ka (Nef)
Method: Figure 8 depicts the SPR results for Mortalin peptides binding to Nef. The Nef protein was immobilized as a ligand on the chip surface, and the peptides were used as analytes to flow into the buffer solution.
(§2) SPR experiments were conducted using a Biacore T200 instrument (Cytiva, Marlborough, MA, USA). CM5 sensor chips (Cytiva) were used to immobilize proteins and run subsequent binding assays at 25 °C. To investigate the direct binding of Nef and SMR peptides to Vimentin and Mortalin and SMR competition studies, both proteins were immobilized as ligands on the active flow cells (FCs) using standard amine coupling chemistry. One reference FC was prepared using the same surface chemistry, and no proteins were immobilized onto this reference FC. Vimentin was immobilized to a level of ~2500 RU to 7200 RU in the presence of 4 mM of HCl and Mortalin to a level of ~11,900 RU to 13,200 RU in the presence of 10 mM of sodium acetate buffer at pH 4.5. Analytes were then injected (Nef, SMR peptides, Mortalin peptides, and mixtures of […]). One 20 s pulse of 1:500 H3PO4 (H3PO4:ddH2O) was injected for surface regeneration. To investigate the direct binding of Mortalin peptides to Nef, Nef was immobilized as a ligand to ~450 RU using thiol coupling chemistry. A reference FC was created using a method similar to the one above. Mortalin peptides were then injected as analytes. One 20 s pulse of 1 M NaCl was injected for surface regeneration. HBS-P (10 mM Hepes, pH 7.4; 150 mM NaCl; 0.05% surfactant P20) was used as the immobilization running buffer during the immobilization of all ligands. HBS-P was also used to dilute analytes and as a running buffer during all analyte–ligand binding assays. SPR data used for analysis was both blank (signals due to HBS-P only) and reference-subtracted (signals corresponding to reference FCs). Sensorgrams recorded for kinetics analyses were fitted to a 1:1 binding model using the Biacore T200 evaluation software version 3.2.1. GraphPad Prism version 10.4.0 was used to plot all graphs.

[4] = tested on: MDA-MB-231 BC cells; test: Exosome secretion by N-Rh-PE (Figure 4A), MDA-MB-231; type: cell-based, human; details: 100 ng/mL peptide, 24 h, no transfection, N-Rh-PE fluorescence, three independent experiments
Method: (§3) Figure 4 Effects of SMR, Mortalin, and Vimentin peptides on tumor cell exosome secretion in MDA-MB-231 and MCF-7 breast cancer cells. MDA-MB-231 and MCF-7 BC cells (200 µL, 1 × 10^4 cells/mL) were seeded into a 96-well plate and treated with 100 ng/mL of either wild-type (wt) or mutant (mut) peptides of SMR, Mortalin, or Vimentin. Treatments were performed in RPMI-1640 medium without transfection, and cells were incubated at 37 °C for 24 h. The cells were then treated with 0.5 µM/mL of N-Rh-PE, incubated at 4 °C for 1 h, and washed with PBS. Fresh medium was also added. The cultures were incubated at 37 °C for an additional 24 h. N-Rh-PE refers to N-(Lissamine Rhodamine B sulfonyl) phosphatidyl-ethanolamine, a fluorescent lipid dye commonly used to label membranes and track vesicle trafficking. […] Exosome secretion was assessed by measuring the amount of N-Rh-PE, which corresponds to the number of exosomes released into the extracellular medium. Bar graphs show the relative exosome release level. Data represent the mean ± SD of three independent experiments.

[5] = tested on: MCF-7 BC cells; test: Exosome secretion by N-Rh-PE (Figure 4B), MCF-7; type: cell-based, human; details: 100 ng/mL peptide, 24 h, no transfection, N-Rh-PE fluorescence, three independent experiments
Method: as §3

[6] = molecular target: T1, Recombinant Human GRP75/HSPA9B/Mortalin His Protein (Homo sapiens, UniProt P38646); test: biochemical; type: binding
T1 construct: His; purchased Novus Biologicals, LLC/R&D Systems NBC1-18380
T1 sequence (P38646 47-679): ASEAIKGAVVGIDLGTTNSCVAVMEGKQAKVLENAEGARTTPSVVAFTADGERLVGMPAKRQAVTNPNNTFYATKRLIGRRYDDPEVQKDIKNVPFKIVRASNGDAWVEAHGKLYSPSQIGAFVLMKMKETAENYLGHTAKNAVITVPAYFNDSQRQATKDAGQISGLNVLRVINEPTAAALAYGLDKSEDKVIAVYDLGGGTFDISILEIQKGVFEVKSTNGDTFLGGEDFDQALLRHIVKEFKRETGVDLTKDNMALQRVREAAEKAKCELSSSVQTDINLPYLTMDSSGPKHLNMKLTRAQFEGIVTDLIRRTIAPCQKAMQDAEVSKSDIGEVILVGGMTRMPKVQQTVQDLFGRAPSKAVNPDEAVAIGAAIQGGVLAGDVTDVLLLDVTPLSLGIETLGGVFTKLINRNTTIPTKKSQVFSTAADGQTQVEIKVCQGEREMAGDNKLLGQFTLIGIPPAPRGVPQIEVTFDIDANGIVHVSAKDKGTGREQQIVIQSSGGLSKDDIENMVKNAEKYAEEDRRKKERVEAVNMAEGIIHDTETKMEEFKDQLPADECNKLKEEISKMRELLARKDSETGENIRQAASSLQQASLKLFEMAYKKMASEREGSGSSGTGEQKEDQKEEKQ
Source text: (§4) We conducted SPR experiments to characterize and quantify the direct binding interactions between Nef and SMR peptides (the analytes) and the target proteins, Vimentin and Mortalin (the immobilized ligands). We did so by injecting the analytes at various concentrations over the chip surface with the immobilized ligands.
(§5) Recombinant Human Vimentin Protein, CF (catalog # 2105-VI-100), Recombinant Human GRP75/HSPA9B/Mortalin His Protein (catalog # NBC1-18380), and Recombinant Human HSPA8/HSC71/Hsc70 His Protein (Catalog # NBPI-30278) were purchased from Novus Biologicals, LLC/R&D Systems, Centennial, CO, USA. These proteins were used for SPR.
as §2

[7] = molecular target: T2, Recombinant Human Vimentin Protein (Homo sapiens, UniProt P08670); test: biochemical; type: binding
T2 construct: purchased Novus Biologicals, LLC/R&D Systems 2105-VI-100
T2 sequence (P08670 whole entry): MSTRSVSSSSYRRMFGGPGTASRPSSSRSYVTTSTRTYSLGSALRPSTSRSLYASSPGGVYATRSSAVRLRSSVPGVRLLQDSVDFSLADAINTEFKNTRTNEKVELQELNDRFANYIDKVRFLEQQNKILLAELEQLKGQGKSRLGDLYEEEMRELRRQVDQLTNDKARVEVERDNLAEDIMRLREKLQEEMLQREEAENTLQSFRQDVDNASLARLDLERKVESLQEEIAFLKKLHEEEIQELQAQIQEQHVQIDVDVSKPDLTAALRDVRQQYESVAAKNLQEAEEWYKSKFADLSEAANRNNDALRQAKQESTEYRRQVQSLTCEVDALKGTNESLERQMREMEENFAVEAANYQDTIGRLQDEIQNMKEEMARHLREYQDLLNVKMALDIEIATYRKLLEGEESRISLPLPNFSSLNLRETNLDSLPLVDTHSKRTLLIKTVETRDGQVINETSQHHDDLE
Source text: as §4, §5, §2

Substance | Jurkat GFP (exNef secretion) [1] | MDA-MB-231 N-Rh-PE (exosome secretion) [2] | further results
AVNMAEGIIHDTETKMEEFK [#59, Mortalin scanning peptide 59] | 95.49% | 67.81% | –
AYKKMASEREGSGSSGTGEQ [#66, Mortalin scanning peptide 66] | 92.28% | 81.79% | –
DTETKMEEFKDQLPADECNK [#60, Mortalin scanning peptide 60] | 98.25% | 72.32% | –
EDRRKKERVEAVNMAEGIIH [#58, Mortalin scanning peptide 58] | 91.89% | 68.11% | –
ENIRQAASSLQOASLKLFEM [#64, Mortalin scanning peptide 64] | 95.37% | 73.49% | –
GGLSKDDIENMVKNAEKYAE [#56] | – | – | Kd [3]: 76.9 µM; kon [3]: 370 M⁻¹ s⁻¹
GSGSSGTGEQKEDQKEEKQ [#67, Mortalin scanning peptide 67] | 99.56% | 89.82% | –
LKEEISKMRELLARKDSETG [#62] | – | – | Kd [3]: 1.9 µM; kon [3]: 1970 M⁻¹ s⁻¹
LLARKDSETGENIRQAASSL [#63, Mortalin scanning peptide 63] | 98.02% | 75.39% | –
LYEEEMRE [VIM-wt, Vimentin-wt peptide (LYEEEMRE)] | – | – | exosome release vs untreated, in words [4]: significantly decreased exosome release; p, UT vs. peptide, exosome release [4]: < 0.00005; exosome release vs untreated, in words [5]: significantly decreased exosome release; p, UT vs. peptide, exosome release [5]: < 0.00005
MVKNAEKYAEEDRRKKERVE [#57, Mortalin scanning peptide 57] | 96.69% | 79.73% | –
QOASLKLFEMAYKKMASERE [#65, Mortalin scanning peptide 65] | 96.34% | 81.65% | –
VGFPV [SMRwt, ^66Val-Gly-Phe-Pro-Val^70] | – | – | Kd [6]: 20.7 µM; kon ([6]; pH 7.4, read-out: ka (Mortalin)): 671 M⁻¹ s⁻¹; Kd [7]: 6.63 µM; kon ([7]; pH 7.4, read-out: ka (Vimentin)): 6410 M⁻¹ s⁻¹
